The Deep4Chem optical property database
One block for each compound: values may come before it.

Assay: photoluminescence quantum yield (fraction); solvent given as SMILES

Compound: O=C1c2ccccc2-c2ccc(N3CCN(c4ccccc4)CC3)c3cccc1c23
- photoluminescence quantum yield (in C1CCCCC1): 0.424
- photoluminescence quantum yield (in C1CCOC1): 0.123
- photoluminescence quantum yield (in C1COCCO1): 0.42
- photoluminescence quantum yield (in CC1COC(=O)O1): 0.009
- photoluminescence quantum yield (in CC#N): 0.005
- photoluminescence quantum yield (in CC(C)=O): 0.011
- photoluminescence quantum yield (in CCCCCCCCO): 0.018
- photoluminescence quantum yield (in CCCCCO): 0.017
- photoluminescence quantum yield (in CCCCO): 0.014
- photoluminescence quantum yield (in CCCO): 0.021
- photoluminescence quantum yield (in CCO): 0.007
- photoluminescence quantum yield (in CCOC(C)=O): 0.108
- photoluminescence quantum yield (in CN(C)C=O): 0.005
- photoluminescence quantum yield (in CO): 0.004
- photoluminescence quantum yield (in CS(C)=O): 0.004
- photoluminescence quantum yield (in Cc1ccccc1): 0.431
- photoluminescence quantum yield (in ClC(Cl)Cl): 0.348

- photoluminescence quantum yield (in CO): 1
Compound: CC1=CC(/C=C/c2ccc(OCCCN=[N+]=[N-])cc2)=[N+]2C1=C(c1ccccc1)c1c(C)cc(C)n1[B-]2(F)F

- photoluminescence quantum yield (in ClCCl): 0.01
Compound: CCOC(=O)COc1ccc(/C=C/C2=C3C(C)=CC(C)=[N+]3[B-](F)(F)n3c2c2ccccc2c3-c2[nH]c(C)cc2C)cc1

Compound: CCCCCCC1(CCCCCC)c2cc(-c3nc(-c4ccc5c(c4)C(CCCCCC)(CCCCCC)c4cc(N6c7ccccc7Sc7ccccc76)ccc4-5)nc(-c4ccc5c(c4)C(CCCCCC)(CCCCCC)c4cc(N6c7ccccc7Sc7ccccc76)ccc4-5)n3)ccc2-c2ccc(N3c4ccccc4Sc4ccccc43)cc21
- photoluminescence quantum yield (in C1CCOC1): 0.01
- photoluminescence quantum yield (in CCCCCC): 0.04
- photoluminescence quantum yield (in Cc1ccccc1): 0.02
- photoluminescence quantum yield (in ClCCl): 0.003

- photoluminescence quantum yield (in CC#N): 0.045
Compound: Cc1ccc(-c2ccc(/C=C/c3ccc([N+](=O)[O-])cc3)cn2)nc1

- photoluminescence quantum yield (in ClCCl): 0
Compound: F[B-]1(F)n2c(c(-c3ccccc3)c(-c3cccs3)c2-c2ccccc2)N=C2C(c3ccccc3)=C(c3cccs3)C(c3ccccc3)=[N+]21

- photoluminescence quantum yield (in C1CCOC1): 0.005
Compound: O=S1(=O)C(c2ccsc2)=C(c2ccsc2)c2ccccc21

- photoluminescence quantum yield (in ClCCl): 0.59
Compound: CCCCC(CC)Cn1c2cc(C#N)ccc2c2ccc(C#Cc3ccc4ccc5cccc6ccc3c4c56)cc21 (stereo not given)

- photoluminescence quantum yield (in ClC(Cl)Cl): 0.1
Compound: COc1ccc(C2=c3sc(-c4ccc(OC)cc4)cc3=[N+]3C2=Nc2c(-c4ccc(OC)cc4)c4sc(-c5ccc(OC)cc5)cc4n2[B-]3(F)F)cc1

- photoluminescence quantum yield (in ClCCl): 0.43
Compound: CCN(CC)c1ccc2cc(-c3nc4cc(C(=O)Nc5ccc(C)cc5[N+](=O)[O-])ccc4o3)c(=O)oc2c1

- photoluminescence quantum yield (in ClCCl): 0.53
Compound: COCCOCCOCCOCC(COCCOCCOCCOC)Oc1cc(/C=C/c2ccc(C=C(C#N)C#N)cc2)c(OC(COCCOCCOCCOC)COCCOCCOCCOC)cc1/C=C/c1ccc(C=C(C#N)C#N)cc1

- photoluminescence quantum yield (in ClC(Cl)Cl): 0.01
Compound: CCCCC1(c2ccccc2)Nc2c(-c3ccc(N(C)c4ccccc4)cc3)ccc(-c3ccc(N(C)c4ccccc4)cc3)c2N=C1c1ccccc1 (stereo not given)

- photoluminescence quantum yield (in CS(C)=O): 0.02
Compound: Cn1c(=O)c(/N=N/c2ccc(S(=O)(=O)O)c3ccccc23)c(O)c2ccccc21

- photoluminescence quantum yield (in CCO): 0.57
Compound: COC(=O)CCC(NC(=O)CCNc1cccc2ccccc12)C(=O)OC (stereo not given)

Compound: COC(=O)/C(C#N)=c1\s/c(=c2/s/c(=C(/C#N)C(=O)OC)c3cc(-c4ccc(C(F)(F)F)cc4)sc23)c2sc(-c3ccc(C(F)(F)F)cc3)cc12
- photoluminescence quantum yield (in Cc1ccccc1): 0.212

- photoluminescence quantum yield (in ClCCl): 0.12
Compound: c1ccc2c(c1)ccc1c3ccccc3ccc21

Compound: O=S(=O)(c1ccc(N(c2ccccc2)c2ccccc2)cc1)c1ccc(S(=O)(=O)c2ccc(N(c3ccccc3)c3ccccc3)cc2)cc1
- photoluminescence quantum yield (in Cc1ccccc1): 0.64

- photoluminescence quantum yield (in C1CCCCC1): 0.42
- photoluminescence quantum yield (in C1COCCO1): 0.47
- photoluminescence quantum yield (in CC#N): 1
- photoluminescence quantum yield (in CC(C)O): 1
- photoluminescence quantum yield (in CCCCCC): 0.27
- photoluminescence quantum yield (in CO): 1
- photoluminescence quantum yield (in ClC(Cl)Cl): 0.53
- photoluminescence quantum yield (in c1ccccc1): 0.52
Compound: CC1(C)Cc2c(c3ccccc3c3nc4c5c(c6ccccc6c4nc23)OC(C)(C)C5)O1

Compound: COC(=O)c1ccc2c3ccc(C(=O)OC)c4c(C(=O)OC)ccc(c5ccc(C(=O)OC)c1c25)c43
- photoluminescence quantum yield (in C1COCCO1): 0.99
- photoluminescence quantum yield (in CC#N): 0.97
- photoluminescence quantum yield (in CC(C)=O): 0.99
- photoluminescence quantum yield (in CC(C)O): 0.96
- photoluminescence quantum yield (in CCCCO): 0.96
- photoluminescence quantum yield (in CN(C)C=O): 0.95
- photoluminescence quantum yield (in CO): 0.99
- photoluminescence quantum yield (in ClC(Cl)Cl): 0.83

- photoluminescence quantum yield (in C1CCOC1): 0.72
Compound: CC(C)(C)c1ccc(/C=C/c2ccc(N(c3ccc(/C=C/c4ccc(C(C)(C)C)cc4)cc3)c3ccc(-c4nc5ccccc5nc4-c4ccc(N(c5ccc(/C=C/c6ccc(C(C)(C)C)cc6)cc5)c5ccc(/C=C/c6ccc(C(C)(C)C)cc6)cc5)cc4)cc3)cc2)cc1

- photoluminescence quantum yield (in ClC(Cl)Cl): 0.1
Compound: Cc1cc(=O)oc2cc3c(cc12)c1c2ccccc2c2ccccc2c1c1c2ccccc2c2ccccc2c31

- photoluminescence quantum yield (in ClC(Cl)Cl): 0.72
Compound: Cc1c2c(c(C)c3ccccc13)-c1cc3nc4ccccc4nc3cc1-2

Compound: CCOC(=O)CN1C(=O)C2=C(c3ccc(N4CCCCC4)cc3)N(CC(=O)OCC)C(=O)C2=C1c1ccc(C#N)cc1
- photoluminescence quantum yield (in CC#N): 0.01
- photoluminescence quantum yield (in CS(C)=O): 0.001
- photoluminescence quantum yield (in Cc1ccccc1): 0.16

- photoluminescence quantum yield (in CC#N): 1
Compound: CC1=C(C#Cc2ccccc2)C2=Cc3c(C#Cc4ccccc4)c(C)c(C)n3[B-](F)(F)[N+]2=C1C

- photoluminescence quantum yield (in ClC(Cl)Cl): 0.35
Compound: CCCCCCCCCCOc1cc(OCCCCCCCCCC)cc(C2=C3C(C)=CC(/C=C/c4ccc(OC)cc4)=[N+]3[B-](F)(F)n3c(/C=C/c4ccc(OC)cc4)cc(C=Cc4ccc(OC)cc4)c32)c1

- photoluminescence quantum yield (in ClCCl): 0.3
Compound: C[Si]1(C)O[Si](C)(C)c2cc3c(-c4ccccc4)c4cc([N+](=O)[O-])ccc4nc3cc21

- photoluminescence quantum yield (in ClCCl): 0.37
Compound: O=P1(c2ccccc2)C(c2ccccc2)=Cc2cc3ccccc3cc21 (stereo not given)

- photoluminescence quantum yield (in CC#N): 0.16
Compound: C[C@]12SC(=O)C=C1c1nc(-c3ccc(O)cc3)[nH]c1C1=CC(=O)S[C@@]12C

- photoluminescence quantum yield (in C1COCCO1): 0.611
- photoluminescence quantum yield (in CN(C)C=O): 0.352
- photoluminescence quantum yield (in CS(C)=O): 0.009
Compound: CC(C)(C)NS(=O)(=O)c1ccc2c(c1)C(=O)/C(=C1\Sc3ccc(S(=O)(=O)NC(C)(C)C)cc3C1=O)S2

- photoluminescence quantum yield (in C1CCOC1): 0.57
- photoluminescence quantum yield (in ClCCl): 0.88
Compound: F[B-]1(F)n2c(c3ccccc3c2-c2ccccc2)C=C2c3ccccc3C(c3ccccc3)=[N+]21

- photoluminescence quantum yield (in ClCCl): 0.24
Compound: c1ccc(-c2cccc3ncc(-c4ccccc4)n23)cc1

- photoluminescence quantum yield (in CO): 0.2
Compound: N#Cc1cccc(-c2nc(-c3ccccc3)c(-c3ccccc3)[nH]2)c1

- photoluminescence quantum yield (in C1CCOC1): 0.77
Compound: Nc1ccccc1/C=C/C(F)(F)F

- photoluminescence quantum yield (in CCO): 0.073
Compound: Cc1nc2c(cc3c4c(cccc42)C(=O)OC3=O)o1

Compound: CC1=C(c2cccs2)C(C)=[N+]2C1=C(c1ccc(OS(=O)(=O)c3ccc([N+](=O)[O-])cc3[N+](=O)[O-])cc1)c1c(C)c(-c3cccs3)c(C)n1[B-]2(F)F
- photoluminescence quantum yield (in Cc1ccccc1): 0.059

- photoluminescence quantum yield (in CC#N): 0.041
Compound: COC(=O)[C@@]12N=N[C@@](C(=O)OC)(C3[C@H]1C3(C)C)[C@H]1[C@@H]2C1(C)C (stereo not given in full)

- photoluminescence quantum yield (in C1CCCCC1): 0.39
- photoluminescence quantum yield (in CC#N): 0.34
- photoluminescence quantum yield (in CO): 0.33
- photoluminescence quantum yield (in ClCCl): 0.37
Compound: COc1c2ccccc2c(OC)c2c1c1cc(F)ccc1n2C

- photoluminescence quantum yield (in CO): 0.41
Compound: c1ccc(N(c2ccccc2)c2ccc(-c3cnc(-c4ccc(N(c5ccccc5)c5ccccc5)cc4)s3)cc2)cc1

- photoluminescence quantum yield (in CC#N): 0.48
- photoluminescence quantum yield (in CO): 0.39
- photoluminescence quantum yield (in ClCCl): 0.57
Compound: COc1ccc(-c2[nH]c(=O)n3c2-c2ccccc2C3=O)c(OC)c1

- photoluminescence quantum yield (in CO): 0.0644
Compound: C(=C\c1c[nH]c2ccc(Oc3ccccc3)cc12)/C1=[NH+]c2cccc3cccc1c23

- photoluminescence quantum yield (in CC#N): 0.078
Compound: Oc1ccc2ccccc2c1/C=N/C1CCCCC1/N=C/c1c(O)ccc2ccccc12 (stereo not given)

- photoluminescence quantum yield (in C1COCCO1): 0.14
- photoluminescence quantum yield (in CC#N): 0.01
- photoluminescence quantum yield (in ClCCl): 0.17
Compound: CN(C)c1ccc(/C=C/c2nc3cc(Br)ccc3nc2-c2ccccc2)cc1

- photoluminescence quantum yield (in O): 0.26
Compound: O=S(=O)([O-])c1ccc([O-])c2ccccc12

- photoluminescence quantum yield (in CC#N): 0.004
Compound: COc1ccc(-n2nc(C(=O)c3ccc(Cl)cc3)c(N3CCCC3)n2)cc1

- photoluminescence quantum yield (in ClC(Cl)Cl): 0.76
Compound: N#Cc1nc(N(Cc2ccccc2)Cc2ccccc2)c(C#N)nc1N(Cc1ccccc1)Cc1ccccc1

- photoluminescence quantum yield (in ClCCl): 0.006
Compound: COc1ccc(/C2=C3N=C(C(c4ccccc4)=C/3c3ccccc3)/C(c3ccc(OC)cc3)=c3\[nH]/c(c(-c4ccccc4)c3-c3ccccc3)=C(/c3ccc(OC)cc3)C3=N/C(=C(/c4ccc(OC)cc4)c4[nH]c2c(-c2ccccc2)c4-c2ccccc2)C(c2ccccc2)=C3c2ccccc2)cc1

Compound: CCCCCCCCOc1ccc2c3cccc4c(OCCCCCCCC)ccc(c5cccc1c52)c43
- photoluminescence quantum yield (in C1CCOC1): 0.94
- photoluminescence quantum yield (in Cc1ccccc1): 0.9
- photoluminescence quantum yield (in ClC(Cl)(Cl)Cl): 0.08
- photoluminescence quantum yield (in ClC(Cl)Cl): 0.69
- photoluminescence quantum yield (in ClCCl): 0.81
- photoluminescence quantum yield (in c1ccncc1): 0.9

- photoluminescence quantum yield (in ClCCl): 0.9
Compound: O=[N+]([O-])c1ccc([N+]2=Cc3ccc4ccccc4c3O[B-]2(F)F)cc1

- photoluminescence quantum yield (in C1COCCO1): 0.71
- photoluminescence quantum yield (in CC#N): 0.68
- photoluminescence quantum yield (in CO): 0.56
Compound: COc1ccc(/C=C/C=C/C2=NC3C(=O)NC(N)=NC3N2[C@H]2C[C@H](O)[C@@H](CO)O2)cc1 (stereo not given in full)

- photoluminescence quantum yield (in C1CCOC1): 0.68
Compound: CN(C)c1ccc(-c2ccc(-c3cc(N4CCCCC4)c(C#N)c4c3-c3ccccc3CC4)cc2)cc1

- photoluminescence quantum yield (in ClCCl): 0.68
Compound: F[B-]1(F)n2c(Oc3ccccc3)c(Cl)c(Br)c2C(Oc2ccccc2)=C2C(Br)=C(Cl)C(Oc3ccccc3)=[N+]21

- photoluminescence quantum yield (in ClCCl): 0.13
Compound: c1ccc(C2=Nc3cccc4[n+]3[B-](c3ccccc3)(N2)NC(c2ccccc2)=N4)cc1

- photoluminescence quantum yield (in ClCCl): 0.57
Compound: Cc1cc(C)c(C2=C3C=C(/C=C/C(=O)OC(C)(C)C)C=[N+]3[B-](F)(F)n3c2ccc3N2CCCC2)c(C)c1

Compound: CN(C)c1ccc2cc(C3=[O+][B-](F)(F)OC(c4ccc(C#N)cc4)=C3)ccc2c1
- photoluminescence quantum yield (in C1CCOC1): 0.56
- photoluminescence quantum yield (in CC#N): 0.007
- photoluminescence quantum yield (in CC(C)=O): 0.18
- photoluminescence quantum yield (in CS(C)=O): 0.007
- photoluminescence quantum yield (in Cc1ccccc1): 0.62
- photoluminescence quantum yield (in ClC(Cl)Cl): 0.94
- photoluminescence quantum yield (in ClCCl): 0.87

- photoluminescence quantum yield (in C1CCCCC1): 0.0019
- photoluminescence quantum yield (in CC#N): 0.0019
Compound: Cc1ccc(/C=C/c2ccccc2-[n+]2noc([O-])c2C)cc1

- photoluminescence quantum yield (in CC#N): 0.47
Compound: c1ccc(-[c+]2c3ccccc3oc3ccccc32)cc1
